This assay has as its system patients diagnosed as acute attack of vertigo. Conditions: human, in vivo.

Molecules are shown by their SMILES.

For the molecule `OC(CCCN1CCCCC1)(c1ccccc1)c1ccccc1` [Diphenidol], the “Total effective (patients effective/sample)” value is on record as 19/28 and the Total effective percentage came to 67.9%.
